Measured values taken from the supplement of paper PMC10307832.

Legend:
Experiment in all cases: relative viability (nuclei count vs DMSO), 5 days (fraction); higher = more cells survive
Obatoclax + Olaparib = compound: COC1=CC(c2cc3ccccc3[nH]2)=N/C1=C\c1[nH]c(C)cc1C [Obatoclax] + O=C(c1cc(Cc2n[nH]c(=O)c3ccccc23)ccc1F)N1CCN(C(=O)C2CC2)CC1 [Olaparib] (partner 8 µM)
Outline: (§1)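 Each reported value is a median over duplicate plates. It expresses relative viability: treated-well nuclei count divided by vehicle-well nuclei count. Lung cancer cell lines in 1536-well plates were dosed by pin tool a day after seeding, alone with one drug or with a fixed anchor-drug dose plus five library-drug doses (not always all listed) in √10 steps, and nuclei were counted after 5 days.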

[1] = compound: CC1=CC(=NN1)NC2=CC(=NC(=N2)/C=C/C3=CC=CC=C3)N4CCN(CC4)C + COc1cccc2cc(-c3nc([C@H]4CC[C@H](C(=O)O)CC4)n4ncnc(N)c34)[nH]c12 [OSI-027] (partner 0.5 µM)
Outline: as §1

Obatoclax + Palbociclib = compound: COC1=CC(c2cc3ccccc3[nH]2)=N/C1=C\c1[nH]c(C)cc1C [Obatoclax] + CC(=O)c1c(C)c2cnc(Nc3ccc(N4CCNCC4)cn3)nc2n(C2CCCC2)c1=O [Palbociclib] (partner 0.5 µM)
Outline: as §1

Obatoclax + Crizotinib = compound: COC1=CC(c2cc3ccccc3[nH]2)=N/C1=C\c1[nH]c(C)cc1C [Obatoclax] + C[C@@H](Oc1cc(-c2cnn(C3CCNCC3)c2)cnc1N)c1c(Cl)ccc(F)c1Cl [Crizotinib] (partner 1 µM)
Outline: as §1

Cell Line	relative viability (Obatoclax + Olaparib; first compound 0.01 µM)	relative viability (Obatoclax + Olaparib; first compound 0.03162 µM)	relative viability (Obatoclax + Olaparib; first compound 0.1 µM)	relative viability (Obatoclax + Olaparib; first compound 0.3162 µM)	relative viability (Obatoclax + Olaparib; first compound 1 µM)	relative viability ([1]; first compound 0.08 µM)	relative viability ([1]; first compound 0.253 µM)	relative viability ([1]; first compound 0.8 µM)	relative viability ([1]; first compound 2.53 µM)	relative viability ([1]; first compound 8 µM)	relative viability (Obatoclax + Palbociclib; first compound 0.01 µM)	relative viability (Obatoclax + Palbociclib; first compound 0.03162 µM)	relative viability (Obatoclax + Palbociclib; first compound 0.1 µM)	relative viability (Obatoclax + Palbociclib; first compound 0.3162 µM)	relative viability (Obatoclax + Palbociclib; first compound 1 µM)	relative viability (Obatoclax + Crizotinib; first compound 0.01 µM)	relative viability (Obatoclax + Crizotinib; first compound 0.03162 µM)	relative viability (Obatoclax + Crizotinib; first compound 0.1 µM)	relative viability (Obatoclax + Crizotinib; first compound 0.3162 µM)	relative viability (Obatoclax + Crizotinib; first compound 1 µM)
NCI-H2023	0.485	0.574	0.442	0.246	0.15	0.374	0.45	0.341	0.0653	0.041	0.414	0.361	0.358	0.213	0.218	0.764	0.638	0.6	0.601	0.568
HCC-366	0.322	0.366	0.316	0.334	0.272	0.833	0.618	0.875	0.0773	0.0341	0.401	0.34	0.311	0.304	0.203	0.63	0.554	0.468	0.533	0.354
NCI-H1355	0.76	0.767	0.781	0.667	0.717	0.378	0.374	0.389	0.213	0.105	0.398	0.391	0.371	0.387	0.369	1.13	0.93	1.04	1.03	0.915
NCI-H1650	0.764	0.742	0.774	0.539	0.229	0.645	0.782	0.624	0.154	0.0984	0.344	0.407	0.316	0.24	0.145	0.892	1.01	1.05	0.699	0.297
SW 1573	0.488	0.529	0.363	0.149	0.179	0.549	0.511	0.569	0.0922	0.0676	0.379	0.35	0.298	0.118	0.133	0.781	0.749	0.843	0.861	0.483
NCI-H661	0.741	0.729	0.729	0.676	0.516	0.774		0.599	0.39	0.217	0.393	0.397	0.465	0.413	0.34	0.851				1.03
LU99A	0.292	0.243		0.313	0.321	0.292	0.327	0.28	0.256	0.155	0.426	0.377		0.402	0.4	0.614	0.498	0.569	0.236	0.233
LCLC-97TM1	0.273	0.38	0.389	0.293	0.348	0.427	0.335	0.564	0.192	0.2	0.193	0.223	0.204	0.199	0.25	0.452	0.27	0.339	0.329	0.358
LC-2-ad	0.693	0.676	0.732	0.723	0.648	0.808	0.867	0.753	0.336	0.184	0.428	0.46	0.489	0.464	0.438	0.424	0.455		0.412	0.425
NCI-H2228	0.583	0.521	0.62	0.489	0.405	0.566	0.595	0.557	0.0751	0.0577	0.609	0.792	0.573	0.525	0.401	0.404	0.488	0.464	0.299	0.233
HOP-62	0.292	0.352		0.434	0.405	0.875	0.865	0.861	0.52	0.38	0.425	0.393	0.415	0.499	0.455	0.837	0.911	0.998	0.796	1
NCI-H2347	0.56	0.572	0.528	0.524	0.476	0.37	0.431	0.465	0.347	0.197	0.388	0.406	0.393	0.489	0.413	0.738	0.671	0.556	0.742	0.382
NCI-H2087	0.588	0.596	0.436	0.451	0.226	0.622	0.295	0.537	0.196	0.109	0.212	0.216	0.183	0.231	0.116	0.818	0.864	0.83	0.768	0.294
EPLC-272H	0.796	0.889	0.756	0.263	0.215	0.305	0.277	0.231	0.202	0.171	0.323	0.313	0.477	0.266	0.282	0.873	0.682	0.803	0.941	0.946
LXF-289	1.05	1.1	0.972	1.09	1	0.826	0.834	0.673	0.42	0.0972	0.588	0.609	0.588	0.629	0.613	0.796	0.8	0.83	0.822	0.679
COR-L23	0.37	0.352	0.354	0.248	0.156	0.817	0.753	0.67	0.361	0.0841	0.306	0.303	0.228	0.128	0.122	0.632	0.696	0.635	0.212	0.174
